Laboratory results as given in ChEMBL document CHEMBL1201862, “PubChem BioAssay data set” (2004).
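Assay format: 96-well plates, 48-hour exposure. GI50 marks 50% less growth.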 Calls of active or inactive are those of the source. No stated cut-off is given here; in the data, active = GI50 up to about 1.1 µM and inactive = higher.

Key:
Test in all cases: growth of human tumour cells (NCI), 48 h
A498 = tested on: A498
EKVX = tested on: EKVX
HCC 2998 = tested on: HCC 2998
HL-60 = tested on: HL-60
KM12 = tested on: KM12
MCF7 = tested on: MCF7
NCI-H23 = tested on: NCI-H23
OVCAR-3 = tested on: OVCAR-3
OVCAR-4 = tested on: OVCAR-4
OVCAR-8 = tested on: OVCAR-8
RPMI-8226 = tested on: RPMI-8226
SF-295 = tested on: SF-295
SK-MEL-28 = tested on: SK-MEL-28
SK-OV-3 = tested on: SK-OV-3
UACC-62 = tested on: UACC-62
IGROV-1 = tested on: IGROV-1
SW-620 = tested on: SW-620
T47D = tested on: T47D

Measured: GI50

Cc1ccc(-c2cs/c(=N\c3c(C)n(C)n(-c4ccccc4)c3=O)n2CCO)cc1
inactive: A498 70 µM | EKVX 84.7 µM | HCC 2998 > 100 µM | HL-60 > 100 µM | KM12 > 100 µM | MCF7 72.9 µM | NCI-H23 50.8 µM | OVCAR-3 > 100 µM | OVCAR-4 > 100 µM | OVCAR-8 > 100 µM | RPMI-8226 > 100 µM | SF-295 > 100 µM | SK-MEL-28 > 100 µM | SK-OV-3 > 100 µM | UACC-62 > 100 µM

COc1cc(C2c3cc4c(cc3[C@@H](Nc3ccc(C(=O)O)cc3)C3COC(=O)[C@H]23)OCO4)cc(OC)c1O (some centres undefined)
inactive: A498 18.7 µM | EKVX 27.4 µM | HCC 2998 28.4 µM | HL-60 2.49 µM | IGROV-1 17.8 µM | KM12 21.6 µM | NCI-H23 10.6 µM | OVCAR-3 20 µM | OVCAR-4 20.2 µM | OVCAR-8 14.6 µM | SF-295 14.1 µM | SK-MEL-28 27.5 µM | UACC-62 10.6 µM

Cc1cn([C@@H]2C[C@H]2CO)c(=O)[nH]c1=O
inactive: A498 > 100 µM | EKVX > 100 µM | HCC 2998 > 100 µM | HL-60 > 100 µM | IGROV-1 > 100 µM | KM12 > 100 µM | MCF7 > 100 µM | NCI-H23 > 100 µM | OVCAR-4 > 100 µM | OVCAR-8 > 100 µM | RPMI-8226 > 100 µM | SK-MEL-28 > 100 µM | SW-620 > 100 µM | T47D > 100 µM | UACC-62 > 100 µM

C=CCC12CC(=O)CCC1CC(=O)C2 (centres undefined)
inactive: A498 > 100 µM | HCC 2998 > 100 µM | HL-60 > 100 µM | IGROV-1 > 100 µM | KM12 > 100 µM | OVCAR-3 > 100 µM | OVCAR-4 > 100 µM | OVCAR-8 > 100 µM | RPMI-8226 > 100 µM | SK-MEL-28 > 100 µM | SK-OV-3 > 100 µM | SW-620 > 100 µM | UACC-62 > 100 µM

CN1C(=O)CN2C(Cl)(Cl)C2(c2ccccc2F)c2cc([N+](=O)[O-])ccc21 (centres undefined)
inactive: EKVX 30.4 µM | HCC 2998 22.7 µM | IGROV-1 63.8 µM | KM12 38.7 µM | NCI-H23 76 µM | OVCAR-3 > 100 µM | OVCAR-4 > 100 µM | OVCAR-8 > 100 µM | RPMI-8226 40.8 µM | SF-295 80.4 µM | SK-MEL-28 > 100 µM | SK-OV-3 > 10 µM | SW-620 69 µM | UACC-62 28.6 µM

CCC(=O)O[C@@H]1C2C(OC(C)=O)C34COC(C)([C@@H]3C3C(C[C@]3(C)OC(C)=O)[C@@H](OC(=O)c3ccccc3)C4=O)[C@H](OC(C)=O)[C@@]2(OC(C)=O)C[C@@H]1C (some centres undefined)
inactive: EKVX 87.1 µM | HCC 2998 64.7 µM | HL-60 15.6 µM | IGROV-1 13.7 µM | KM12 > 100 µM | NCI-H23 14.9 µM | OVCAR-3 21.6 µM | OVCAR-4 21.1 µM | OVCAR-8 95.5 µM | RPMI-8226 > 100 µM | SF-295 12.4 µM | SK-MEL-28 > 100 µM | SK-OV-3 15.7 µM | SW-620 47.8 µM | UACC-62 75.9 µM

Oc1ccc(-c2nc3ccc(Cl)cc3s2)cc1
inactive: A498 20 µM | EKVX 16.2 µM | HL-60 13.8 µM | IGROV-1 16.5 µM | KM12 16.3 µM | MCF7 7.41 µM | NCI-H23 18.3 µM | OVCAR-3 23.5 µM | OVCAR-8 19.3 µM | RPMI-8226 20.1 µM | SF-295 19.3 µM | SK-OV-3 20.2 µM | SW-620 21.1 µM | UACC-62 16.9 µM

CCNC1=Nc2ccccc2-n2c(nn3nc4ccccc4c23)N1CC
inactive: A498 > 100 µM | EKVX > 100 µM | HL-60 36.6 µM | IGROV-1 > 100 µM | KM12 29.6 µM | NCI-H23 > 100 µM | OVCAR-4 > 100 µM | OVCAR-8 > 100 µM | RPMI-8226 97.1 µM | SF-295 37.3 µM | SK-MEL-28 94.2 µM | SW-620 > 100 µM | UACC-62 > 100 µM

OCC1O[C@H](O[C@@H]2CCCN3CC(O)C(O)[C@@H]23)C(O)C(O)C1O (some centres undefined)
inactive: A498 > 100 µM | EKVX > 100 µM | HCC 2998 > 100 µM | HL-60 > 100 µM | IGROV-1 > 100 µM | KM12 > 100 µM | NCI-H23 > 100 µM | OVCAR-3 > 100 µM | OVCAR-4 > 100 µM | OVCAR-8 > 100 µM | SF-295 > 100 µM | SK-MEL-28 > 100 µM | SK-OV-3 > 100 µM | SW-620 > 100 µM | UACC-62 > 100 µM

CN1CN(c2ccccc2)C2(CCN(CCC3COc4ccccc4O3)CC2)C1=O (centres undefined)
inactive: EKVX 10.3 µM | HCC 2998 8.07 µM | HL-60 19.6 µM | IGROV-1 17.6 µM | KM12 24.7 µM | MCF7 5.27 µM | NCI-H23 30.4 µM | OVCAR-3 19.9 µM | OVCAR-8 32.9 µM | RPMI-8226 17.8 µM | SF-295 21.4 µM | SK-MEL-28 19.6 µM | SK-OV-3 26.6 µM | SW-620 22 µM | T47D 4.65 µM | UACC-62 27.5 µM

COc1ccc(C2S/C(=C\c3ccc(O)cc3)C(=O)N2NC(=O)Cc2ccccc2)cc1 (centres undefined)
inactive: A498 > 100 µM | HL-60 > 100 µM | IGROV-1 > 100 µM | KM12 > 100 µM | NCI-H23 > 100 µM | OVCAR-4 > 100 µM | OVCAR-8 > 100 µM | RPMI-8226 > 100 µM | SF-295 > 100 µM | SK-MEL-28 > 100 µM | SK-OV-3 > 100 µM | SW-620 > 100 µM | UACC-62 > 100 µM

CCOC(=O)c1csc(NC(=O)CCN2CCOCC2)n1
inactive: A498 > 100 µM | EKVX 77.3 µM | HCC 2998 > 100 µM | HL-60 27.7 µM | IGROV-1 41 µM | MCF7 43.8 µM | NCI-H23 > 100 µM | OVCAR-3 39.6 µM | OVCAR-4 > 100 µM | OVCAR-8 29.8 µM | RPMI-8226 43.3 µM | SF-295 > 100 µM | SK-MEL-28 > 100 µM | SK-OV-3 > 100 µM | SW-620 49.1 µM | T47D > 100 µM | UACC-62 > 100 µM

COc1ccc2c(c1)OCC1=C2Oc2ccccc2C1
inactive: A498 > 100 µM | EKVX 30.3 µM | HCC 2998 24 µM | HL-60 14.8 µM | IGROV-1 7.19 µM | KM12 55.8 µM | NCI-H23 53.2 µM | OVCAR-3 33.6 µM | OVCAR-4 31.6 µM | OVCAR-8 55.6 µM | RPMI-8226 23.1 µM | SF-295 41.5 µM | SK-OV-3 85.3 µM | SW-620 30.2 µM | T47D 36.1 µM | UACC-62 69 µM
